One experiment has as its system SK-BR-3 cells. Briefly: Inhibitory activity on cancer cell growth (CCK-8, 72 h), SK-BR-3 cells. In kind it is cell-based. Particulars: human breast adenocarcinoma cells SK-BR-3, 72 h incubation. The procedure:
(§1) Human esophageal cancer cells OE33, human breast adenocarcinoma cells SK-BR-3 and human gastric cancer cells NCI-N87 were cultured in RPMI1640 (Cellmax) supplemented with 10% fetal bovine serum (Cellmax) respectively. Cells in the exponential growth phase were diluted to a concentration of 1×10^5cells/mL by culture medium and added to 96-well cell culture plates at 100µL per well, then incubated overnight in a 37°C incubator with 5% CO2. On the following day, the test compounds and control compounds were diluted to concentrations of 10000 nM, 2000 nM, 400 nM, 80 nM, 16 nM, 3.2 nM, 0.64 nM, and 0.13 nM by culture medium and added to the 96-well cell culture plates at 2µL per well, with three replicate wells for each concentration. Negative control and blank control groups without the addition of compounds were supplemented with 2µL of the dilution liquid per well. After the addition of the compounds, the plates were returned to the 37°C incubator with 5% CO2 to continue incubation for 72 h. After incubation, the cell culture plates were removed, and the culture medium was aspirated using a pipette. Then, 100µL of culture medium containing 10% CCK-8 was added to each well, and the plates were incubated at 37°C for 3 h. After incubation, the plates were removed, kept in the dark, and placed in ELISA plate. Absorbance was measured at 630nm as the reference wavelength and 450nm as the test wavelength. The IC50 values (Tables 1-3) were calculated using the four-parameter logistic regression method in GraphPad, based on the absorbance values. SN38 (7-ethyl-10-hydroxycamptothecin) and 10CPT (10-hydroxycamptothecin) were used as control compounds. For the IC50 values, wherein "++++" indicates an IC50 < 50 nM; "+++" indicates an IC50 between 50 nM and 100 nM; "++" indicates an IC50 between 100 nM and 500 nM; and "+" indicates an IC50 > 500 nM. Table 1: Inhibitory activity of compounds to inhibit the growth of OE33 cells

The next experiment concerns OE33 cells. Nature of the experiment: Inhibitory activity on cancer cell growth (CCK-8, 72 h), OE33 cells. Particulars: human esophageal cancer cells OE33, 72 h incubation. The format is cell-based. How it is done: as §1
The mark [1] stands for this setting: Homo sapiens, OE33, 72 h, read-out: IC50.
[2] abbreviates: Homo sapiens, SK-BR-3, 72 h, read-out: IC50.

Where two headings read alike, the source gives them in different places.

One may read the IC50 as the point on the concentration scale where inhibition reaches its midpoint. `CC[C@@]1(O)C(=O)OCc2c1cc1n(c2=O)Cc2cc3c(CNN4CCOCC4)c(O)ccc3nc2-1` [Compound 18, 9-(morpholin-4-amine)methyl-10-hydroxycamptothecin]: the IC50 with SK-BR-3 cells (Homo sapiens, SK-BR-3, 72 h) is 50 to 100 nM; with OE33 cells (Homo sapiens, OE33, 72 h), 100 to 500 nM.
For `CC[C@@]1(O)C(=O)OCc2c1cc1n(c2=O)Cc2cc3c(CN(C)CC4CCNCC4)c(O)ccc3nc2-1` [Compound 28, 9-(N-methyl(piperidine-4-methyl)amine)methyl-10-hydroxycamptothecin], in the experiment on OE33 cells (Homo sapiens, OE33, 72 h), the IC50 fell in the range of 100 to 500 nM.
In the case of `CC[C@@]1(O)C(=O)OCc2c1cc1n(c2=O)Cc2cc3c(CN(C)[C@@H](C)C(=O)O)c(O)ccc3nc2-1` [Compound 36, 9-(N-methyl-L-alanine)methyl-10-hydroxycamptothecin], the IC50 with OE33 cells (setting [1]) lay within 100 to 500 nM.
The same measure, in the same setting: with `CC[C@@]1(O)C(=O)OCc2c1cc1n(c2=O)Cc2cc3c(CN4CCC(ON)CC4)c(O)ccc3nc2-1` [Compound 3, 9-(1-(4-aminoxypiperidine))methyl-10-hydroxycamptothecin] the figure was 100 to 500 nM.
In the case of `CC[C@@]1(O)C(=O)OCc2c1cc1n(c2=O)Cc2cc3cc(O)ccc3nc2-1` [Compound 10CPT, 10-hydroxycamptothecin, reference compound], the half-inhibitory concentration (IC50) in the experiment with SK-BR-3 cells (Homo sapiens, SK-BR-3, 72 h) was below 50 nM; in the experiment with OE33 cells (Homo sapiens, OE33, 72 h), below 50 nM.
For the compound `CC[C@@]1(O)C(=O)OCc2c1cc1n(c2=O)Cc2cc3c(CN[C@H]4CC[C@H](OC)CC4)c(O)ccc3nc2-1` [Compound 42, 9-(trans-4-methoxycyclohexylamine)methyl-10-hydroxycamptothecin], the IC50 in the experiment with OE33 cells (setting [1]) fell in the range of 100 to 500 nM.
On to `CC[C@@]1(O)C(=O)OCc2c1cc1n(c2=O)Cc2cc3c(CN(C)CCN)c(O)ccc3nc2-1` [Compound 13, 9-(N-methyl-N-aminoethylamino)methyl-10-hydroxycamptothecin], for which the IC50 in the experiment with OE33 cells (setting [1]) was in the range of 100 to 500 nM.
Take `CC[C@@]1(O)C(=O)OCc2c1cc1n(c2=O)Cc2cc3c(CN4CCC(C(=O)O)CC4)c(O)ccc3nc2-1` [Compound 34, 9-(1-piperidine-4-carboxyllic acid)methyl-10-hydroxycamptothecin]: the IC50 in the experiment with OE33 cells (setting [1]) was above 500 nM.
For `CCc1c2c(nc3ccc(O)cc13)-c1cc3c(c(=O)n1C2)COC(=O)[C@]3(O)CC` [SN38, 7-ethyl-10-hydroxycamptothecin, reference compound], the IC50 in the experiment with SK-BR-3 cells (read-out: IC50) and in the experiment with OE33 cells (read-out: IC50) was below 50 nM each time.
Take `CC[C@@]1(O)C(=O)OCc2c1cc1n(c2=O)Cc2cc3c(CN4CCC(OC)CC4)c(O)ccc3nc2-1` [Compound 5, 9-(1-(4-methoxypiperidine))methyl-10-hydroxycamptothecin]: the IC50 was above 500 nM in the experiment on SK-BR-3 cells (setting [2]) and 50 to 100 nM in the experiment with OE33 cells (setting [1]).
Consider `CC[C@@]1(O)C(=O)OCc2c1cc1n(c2=O)Cc2cc3c(CNCCC4CCNCC4)c(O)ccc3nc2-1` [Compound 30, 9-(piperidine-4-ethylamine)methyl-10-hydroxycamptothecin], for which, in the experiment with OE33 cells (Homo sapiens, OE33, 72 h), the IC50 lay in the range of 100 to 500 nM.
For `CC[C@@]1(O)C(=O)OCc2c1cc1n(c2=O)Cc2cc3c(CN[C@@H](C)C(=O)OC(C)(C)C)c(O)ccc3nc2-1` [Compound 35, 9-(L-alaninetert-butyl ester)methyl-10-hydroxycamptothecin], the IC50 with OE33 cells (setting [1]) fell in the range of 50 to 100 nM.
The compound `CC[C@@]1(O)C(=O)OCc2c1cc1n(c2=O)Cc2cc3c(CN(C)C4CCOCC4)c(O)ccc3nc2-1` [Compound 14, 9-(N-methyltetrahydropyran-4-amine)methyl-10-hydroxycamptothecin] returned an IC50 in the experiment with OE33 cells (Homo sapiens, OE33, 72 h) of 100 to 500 nM.
Consider `CC[C@@]1(O)C(=O)OCc2c1cc1n(c2=O)Cc2cc3c(CN(C)CCO)c(O)ccc3nc2-1` [Compound 12, 9-(N-methylhydroxyethylamino)methyl-10-hydroxycamptothecin], for which the IC50 in the experiment with SK-BR-3 cells (Homo sapiens, SK-BR-3, 72 h) was 100 to 500 nM; in the experiment with OE33 cells (Homo sapiens, OE33, 72 h), 100 to 500 nM.
As for `CC[C@@]1(O)C(=O)OCc2c1cc1n(c2=O)Cc2cc3c(CN(C)CCCCN)c(O)ccc3nc2-1` [Compound 11, 9-(N-4-aminobutyl-N-methylamino)methyl-10-hydroxycamptothecin], the concentration for half-maximal inhibition (IC50) was in the range of 100 to 500 nM with SK-BR-3 cells (Homo sapiens, SK-BR-3, 72 h) and 100 to 500 nM in the experiment on OE33 cells (Homo sapiens, OE33, 72 h).
With `CC[C@@]1(O)C(=O)OCc2c1cc1n(c2=O)Cc2cc3c(CN4CCC(C(N)=O)CC4)c(O)ccc3nc2-1` [Compound 8], the 50% inhibitory concentration (IC50) fell in the range of 100 to 500 nM with SK-BR-3 cells (Homo sapiens, SK-BR-3, 72 h) and 100 to 500 nM in the experiment with OE33 cells (Homo sapiens, OE33, 72 h).
With `CC[C@@]1(O)C(=O)OCc2c1cc1n(c2=O)Cc2cc3c(CN4CCC5(CCNCC5)CC4)c(O)ccc3nc2-1` [Compound 29, 9-(3-(undeca-5,5-spirocyclo-3,9-diazane))methyl-10-hydroxycamptothecin], the IC50 in the experiment on OE33 cells (setting [1]) fell in the range of 100 to 500 nM.
As to `CC[C@@]1(O)C(=O)OCc2c1cc1n(c2=O)Cc2cc3c4c(ccc3nc2-1)OCN(N1CCOCC1)C4` [Compound 22, 3-(N-morpholine)-1.3-oxazino[5,6][9,10]camptothecin], the IC50 in the experiment on OE33 cells (setting [1]) fell in the range of 100 to 500 nM.
On to `CC[C@@]1(O)C(=O)OCc2c1cc1n(c2=O)Cc2cc3c(CN4CCN(C(C)=O)CC4)c(O)ccc3nc2-1` [Compound 7, 9-(1-(4-acetylpiperazine))methyl-10-hydroxycamptothecin], for which the IC50 in the experiment on SK-BR-3 cells (setting [2]) and with OE33 cells (setting [1]) was 50 to 100 nM in each case.
`CC[C@@]1(O)C(=O)OCc2c1cc1n(c2=O)Cc2cc3c(CN4CCN(C(=O)CO)CC4)c(O)ccc3nc2-1` [Compound 46, 9-(1-(4-hydroxyacetylpiperazine))methyl-10-hydroxycamptothecin]: the IC50 with OE33 cells (Homo sapiens, OE33, 72 h) lay within 100 to 500 nM.
For `CC[C@@]1(O)C(=O)OCc2c1cc1n(c2=O)Cc2cc3c(CNN4CCCCC4)c(O)ccc3nc2-1` [Compound 26, 9-(piperidine-1-amine)methyl-10-hydroxycamptothecin], in the experiment on OE33 cells (setting [1]), the IC50 fell in the range of 100 to 500 nM.
`CCNCc1c(O)ccc2nc3c(cc12)Cn1c-3cc2c(c1=O)COC(=O)[C@]2(O)CC` [Compound 20, 9-(ethylamine)methyl-10-hydroxycamptothecin]: the IC50 with OE33 cells (Homo sapiens, OE33, 72 h) is 100 to 500 nM.
Turning to `CC[C@@]1(O)C(=O)OCc2c1cc1n(c2=O)Cc2cc3c(CN(C)C4CCC(O)CC4)c(O)ccc3nc2-1` (stereo partly drawn) [Compound 16, 9-(N-methyl-trans-4-hydroxycyclohexylamine)methyl-10-hydroxycamptothecin], the IC50 in the experiment on OE33 cells (Homo sapiens, OE33, 72 h, numeric value or bound, read-out: IC50) came to 0.221 nM.
Compound `CC[C@@]1(O)C(=O)OCc2c1cc1n(c2=O)Cc2cc3c(CNCC4CCOCC4)c(O)ccc3nc2-1` [Compound 43, 9-(tetrahydropyran-4-methylamine)methyl-10-hydroxycamptothecin] registered an IC50 in the experiment on OE33 cells (Homo sapiens, OE33, 72 h) of 100 to 500 nM.
In the case of `CC[C@@]1(O)C(=O)OCc2c1cc1n(c2=O)Cc2cc3c4c(ccc3nc2-1)OCN(CC(F)(F)F)C4` [Compound 40, 3-(N-(2,2,2-trifluoroethyl))-1.3-oxazino[5,6][9,10]camptothecin], in the experiment with OE33 cells (setting [1]), the IC50 fell in the range of 100 to 500 nM.
For `CC[C@@]1(O)C(=O)OCc2c1cc1n(c2=O)Cc2cc3c(CN4CCN(C(=O)C5CC5)CC4)c(O)ccc3nc2-1` [Compound 6, 9-(1-(4-cyclopropylcarbonylpiperazine))methyl-10-hydroxycamptothecin], the half-maximal inhibitory concentration (IC50) in the experiment with SK-BR-3 cells (Homo sapiens, SK-BR-3, 72 h) fell in the range of 50 to 100 nM; with OE33 cells (Homo sapiens, OE33, 72 h) it was 100 to 500 nM.
As to `CC[C@@]1(O)C(=O)OCc2c1cc1n(c2=O)Cc2cc3c(CN(C)NC(=O)OC(C)(C)C)c(O)ccc3nc2-1` [Compound 23, 9-(1-methyl-2-Boc-hydrazine)methyl-10-hydroxycamptothecin], the IC50 with OE33 cells (setting [1]) is below 50 nM.
With `CC[C@@]1(O)C(=O)OCc2c1cc1n(c2=O)Cc2cc3c(CN4CCNCC4)c(O)ccc3nc2-1` [Compound 2, 9-(1-piperazine)methyl-10-hydroxycamptothecin], the IC50 lay in the range of 50 to 100 nM with SK-BR-3 cells (Homo sapiens, SK-BR-3, 72 h) and 50 to 100 nM in the experiment on OE33 cells (Homo sapiens, OE33, 72 h).
Regarding `CC[C@@]1(O)C(=O)OCc2c1cc1n(c2=O)Cc2cc3c(CN4CCC(C(=O)OC)CC4)c(O)ccc3nc2-1` [Compound 33, 9-(1-piperidine-4-methylformate)methyl-10-hydroxycamptothecin], the IC50 in the experiment with OE33 cells (setting [1]) lay in the range of 100 to 500 nM.
Consider `CC[C@@]1(O)C(=O)OCc2c1cc1n(c2=O)Cc2cc3c(CN4CCC[C@H]4C(=O)OC(C)(C)C)c(O)ccc3nc2-1` [Compound 31, 9-(L-prolinetert-butyl ester)methyl-10-hydroxycamptothecin], for which the half-inhibitory concentration (IC50) in the experiment with OE33 cells (setting [1]) was in the range of 100 to 500 nM.
As for `CC[C@@]1(O)C(=O)OCc2c1cc1n(c2=O)Cc2cc3c(CNC4CCOCC4)c(O)ccc3nc2-1` [Compound 37, 9-(tetrahydropyran-4-amine)methyl-10-hydroxycamptothecin], in the experiment on OE33 cells (setting [1]), the IC50 lay within 100 to 500 nM.
Same read-out and setting: under `CC[C@@]1(O)C(=O)OCc2c1cc1n(c2=O)Cc2cc3c(CN(C)CCCN)c(O)ccc3nc2-1` [Compound 25, 9-(1-methyl-3-aminopropylamine)methyl-10-hydroxycamptothecin] stands 100 to 500 nM.

(Values after patent EP4541797A1, “CAMPTOTHECIN DERIVATIVE, METHOD FOR PREPARING SAME, AND USE THEREOF” (Hangzhou Adcoris Biopharma Co., Ltd, priority 2022, dated 2024).)
